Data: the SangsterLogP compilation

test: from Langlois, M.; Dubost, J.; Audry, E.; Dallet, P.; Colleter, J. (1989). Simultaneous determination of physicochemical constants usable in QSAR in a series of alpha-adrenergic amines. Analusis : chimie …

**Q.** For Fc1ccccc1C1NCCc2c1[nH]c1ccccc21 (centres undefined), which logP is on record?
**A.** 3.16

**Q.** Which logP does the source give for O=[N+]([O-])c1ccc(Cl)c(C2NCCc3c2[nH]c2ccccc32)c1 (centres undefined) here?
**A.** 3.33

**Q.** With Clc1cccc(C2NCCc3c2[nH]c2ccccc32)c1 (centres undefined) as the compound, how does the logP read?
**A.** 3.47

**Q.** With O=[N+]([O-])c1cccc(C2NCCc3c2[nH]c2ccccc32)c1 (centres undefined) as the compound, how does the logP read?
**A.** 3.04

**Q.** With c1ccc2c3c([nH]c2c1)C(c1ccc2c(c1)OCO2)NCC3 (centres undefined) as the compound, how does the logP read?
**A.** 3.69

**Q.** For c1ccc(C(CC2NCCc3c2[nH]c2ccccc32)c2ccccc2)cc1 (centres undefined), which logP is on record?
**A.** 3.47

**Q.** For Clc1ccc(C2NCCc3c2[nH]c2ccccc32)c(Cl)c1 (centres undefined), which logP is on record?
**A.** 3.58

**Q.** Which logP does the source give for Clc1cccc(Cl)c1C1NCCc2c1[nH]c1ccccc21 (centres undefined) here?
**A.** 3.34

**Q.** With Clc1ccc(C2NCCc3c2[nH]c2ccccc32)cc1Cl (centres undefined) as the compound, how does the logP read?
**A.** 3.38
